{"source": "patent US11952330B2", "about": "“Antibiotic ammonium compounds and methods for the treatment of bacterial infections” (priority 2019, dated 2024)", "key": {"S. aureus": {"tested_on": "S. aureus", "experiment": "MIC by broth dilution, S. aureus", "assay_type": "cell-based", "details": "for MIC: Staphylococcus aureus, Mueller-Hinton broth; for selectivity for Gram positive microbes over Gram negative microbes, in words: S. aureus vs A. baumannii", "how_it_was_run": "(§1)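 Broth dilution in Mueller-Hinton broth with 2-fold compound steps over 1–256 μg/mL (final) and 5×10^5 CFU/mL inoculum, incubated overnight at 37 °C. The MIC is the lowest concentration without visible turbidity, from at least biological duplicates of technical triplicates. A parallel series was supplemented with 5% (final) human plasma.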"}, "A. baumannii [1]": {"tested_on": "A. baumannii", "experiment": "MIC by broth dilution, A. baumannii", "assay_type": "cell-based", "details": "Acinetobacter baumannii, Mueller-Hinton broth", "how_it_was_run": "as §1"}, "A. baumannii [2]": {"tested_on": "A. baumannii", "experiment": "MIC by broth dilution in presence of 5% human plasma (esterases), A. baumannii", "assay_type": "cell-based", "details": "for Δ MIC A. baumannii + human plasma: broth supplemented with 5% human plasma (esterases) vs no plasma", "protocol": "The antibacterial efficacy of ammonium compounds in the presence of human plasma was assessed. Minimum inhibitory concentrations (MICs) were determined by broth dilution method. Dilutions of each compound, ranging from 1 μg/mL to 256 μg/mL (final concentrations) were prepared in Mueller-Hinton broth. For the plasma containing samples, compound dilutions were made in Mueller-Hinton broth and supplemented with 5% (final %) human plasma (esterases). Compound dilutions were added to wells of a 96-well plate, with the concentration of the compound increasing 2-fold by row. Each well contained 5×10^5 CFU/mL of target bacterium in a total volume of 100 μL. Plates were incubated overnight at 37° C. The following day, plates were evaluated for a visual change in growth to determine the MIC. The concentration value corresponding to the first row that no longer had visible bacterial growth, as evaluated by turbidity in the wells, was recorded as the MIC. MIC values were representative of at least biological duplicates, each made up of technical triplicates."}, "human red blood cell": {"tested_on": "human red blood cell", "experiment": "In vitro hemolysis assay", "assay_type": "cell-based", "details": "for % hemolysis at 16 μg/ml / % hemolysis at 32 μg/ml: human RBCs, 37° C., 1 hour; for hemolysis as compared to otilonium bromide (11), in words: 16 and 32 μg/mL; for reduction in hemolysis as compared to otilonium bromide (11): at 32 μg/mL", "protocol": "The hemolytic potential of ammonium compounds were assessed in vitro. A human red blood cell solution (RBC) was prepared by washing 400 μL of fresh RBCs twice with 7 mL of 1×PBS (pH 7.4) by centrifugation at 4° C., 2500 rpm for 10 minutes. The precipitates were then resuspended in 4 mL of 1×PBS. Hemolysis testing was performed by mixing 500 μL of freshly prepared test compound solutions at a final concentration of both 16 μg/mL and 32 μg/mL in 1×PBS with 400 μL of the washed human RBCs. Two control samples were prepared by separately mixing 400 μL of washed RBCs with 500 μL of 1×PBS (negative control) and 1% Triton X-100 (w/v). After incubation in a water bath at 37° C. for 1 hour, the samples were centrifuged at 2500 rpm for 10 minutes. 300 μL of the supernatant were collected for measurement in a 96-well plate. The release of hemoglobin was assessed by measuring the absorbance of the samples at 540 nm using 1×PBS as the blank. Hemolysis percent was calculated using Equation 1: […]"}, "[3]": {"tested_on": "enterotoxigenic Escherichia coli (ETEC)", "experiment": "Mouse assay, oral inoculation with ETEC, viable bacteria in intestines", "assay_type": "in vivo", "details": "neonate CD-1 mice, 10^7 CFU oral, compound co-administered at 1 mg/kg, intestines harvested after 4 hours", "protocol": "(§2) Mouse assays were used to evaluate the in vivo activity of compound 95. Male and female neonate CD-1 mice were orally innoculated with 10^7 colony forming units of enterotoxigenic Escherichia coli (ETEC) (FIG. 2A) or vancomycin-resistant enterococcus (VRE) (FIG. 2B) and co-administered compound 95 at 1 mg/kg. Intestines were harvested after 4 hours and plated to determine viable bacteria."}, "[4]": {"tested_on": "vancomycin-resistant enterococcus (VRE)", "experiment": "Mouse assay, oral inoculation with VRE, viable bacteria in intestines", "assay_type": "in vivo", "details": "neonate CD-1 mice, 10^7 CFU oral, compound co-administered at 1 mg/kg, intestines harvested after 4 hours", "protocol": "as §2"}, "[5]": {"details": "no plasma, Table 2, read-out: MIC (μg/ml) S. aureus"}, "[6]": {"details": "overnight 37° C., Table 1, read-out: MIC (μg/mL) S. aureus"}, "[7]": {"details": "no plasma, Table 2, read-out: MIC (μg/ml) A. baumannii"}, "[8]": {"details": "overnight 37° C., Table 1, read-out: MIC (μg/mL) A. baumannii"}}, "note": "Where two headings read alike, the source gives them in different places.", "data": [{"smiles": "CCCCCCCCOc1ccccc1C(=O)Nc1ccc(C(=O)OCC[N+](C)(C)C)cc1.[Br-]", "note": "[Compound 11, N,N,N-Trimethyl-2-((4-(2-(octyloxy)benzamido)benzoyl)oxy)ethan-1-aminium bromide]", "values": [{"measurement": "MIC", "setting": "S. aureus; [5]", "result": "3 to 30", "unit": "µg/mL"}, {"measurement": "MIC", "setting": "S. aureus; [6]", "result": "3 to 30", "unit": "µg/mL"}, {"measurement": "MIC", "setting": "A. baumannii [1]; [7]", "result": "3 to 30", "unit": "µg/mL"}, {"measurement": "MIC", "setting": "A. baumannii [1]; [8]", "result": "3 to 30", "unit": "µg/mL"}, {"measurement": "Δ MIC A. baumannii + human plasma", "setting": "A. baumannii [2]", "result": 8, "unit": "X"}, {"measurement": "% hemolysis at 16 μg/ml", "setting": "human red blood cell", "result": 7, "unit": "%"}, {"measurement": "% hemolysis at 32 μg/ml", "setting": "human red blood cell", "result": 92, "unit": "%"}]}, {"smiles": "CCCCCCCCOc1cccc(OCCCCCCCC)c1C(=O)Nc1ccc(C(=O)OCC[N+](C)(CC)CC)cc1.[Br-]", "note": "[Compound 17, 2-((4-(2,6-Bis(octyloxy)benzamido)benzoyl)oxy)-N,N-diethyl-N-methylethan-1-aminium bromide]", "values": [{"measurement": "antimicrobial activity against Gram positive S. aureus relative to otilonium bromide, in words", "setting": "S. aureus", "result": "comparable or better than the activity of otilonium bromide"}, {"measurement": "selectivity for Gram positive microbes over Gram negative microbes, in words", "setting": "S. aureus", "result": "virtually complete selectivity for Gram positive microbes"}, {"measurement": "MIC", "setting": "S. aureus; [5]", "result": "< 3", "unit": "µg/mL"}, {"measurement": "MIC", "setting": "S. aureus; [6]", "result": "3 to 30", "unit": "µg/mL"}, {"measurement": "MIC", "setting": "A. baumannii [1]; [7]", "result": "> 30", "unit": "µg/mL"}, {"measurement": "MIC", "setting": "A. baumannii [1]; [8]", "result": "> 30", "unit": "µg/mL"}, {"measurement": "stability in the presence of enzymes that are found in the gut, compared with otilonium bromide (11), in words", "setting": "A. baumannii [2]; 5% human plasma", "result": "better stability than otilonium bromide"}, {"measurement": "% hemolysis at 16 μg/ml", "setting": "human red blood cell", "result": 59, "unit": "%"}, {"measurement": "% hemolysis at 32 μg/ml", "setting": "human red blood cell", "result": 90, "unit": "%"}, {"measurement": "hemolysis as compared to otilonium bromide (11), in words", "setting": "human red blood cell", "result": "reduced hemolysis as compared to otilonium bromide"}]}, {"smiles": "CCCCCCOc1ccccc1C(=O)Nc1ccc(C(=O)OCC[N+](CC)(CC)CCCCC)cc1.[Br-]", "note": "[Compound 68, N,N-Diethyl-N-(2-((4-(2-(hexyloxy)benzamido)benzoyl)oxy)ethyl)pentan-1-aminium bromide]", "values": [{"measurement": "antimicrobial activity against Gram positive S. aureus relative to otilonium bromide, in words", "setting": "S. aureus", "result": "comparable or better than the activity of otilonium bromide"}, {"measurement": "selectivity for Gram positive microbes over Gram negative microbes, in words", "setting": "S. aureus", "result": "improved selective for Gram positive microbes over Gram negative microbes"}, {"measurement": "MIC", "setting": "S. aureus; [5]", "result": "< 3", "unit": "µg/mL"}, {"measurement": "MIC", "setting": "S. aureus; [6]", "result": "< 3", "unit": "µg/mL"}, {"measurement": "MIC", "setting": "A. baumannii [1]; [7]", "result": "3 to 30", "unit": "µg/mL"}, {"measurement": "MIC", "setting": "A. baumannii [1]; [8]", "result": "3 to 30", "unit": "µg/mL"}, {"measurement": "stability in the presence of enzymes that are found in the gut, compared with otilonium bromide (11), in words", "setting": "A. baumannii [2]; 5% human plasma", "result": "better stability than otilonium bromide"}, {"measurement": "Δ MIC A. baumannii + human plasma", "setting": "A. baumannii [2]", "result": 8, "unit": "X"}, {"measurement": "% hemolysis at 16 μg/ml", "setting": "human red blood cell", "result": 2, "unit": "%"}, {"measurement": "% hemolysis at 32 μg/ml", "setting": "human red blood cell", "result": 5, "unit": "%"}, {"measurement": "hemolysis as compared to otilonium bromide (11), in words", "setting": "human red blood cell", "result": "reduced hemolysis as compared to otilonium bromide"}, {"measurement": "reduction in hemolysis as compared to otilonium bromide (11)", "setting": "human red blood cell", "result": 94, "unit": "%"}]}, {"smiles": "CCCCCCCOc1cc(F)ccc1C(=O)Nc1ccc(S(=O)(=O)NCC[N+](CC)(CC)CCCC)cc1.[Br-]", "note": "[Compound 95, N,N-Diethyl-N-(2-((4-(4-fluoro-2-(heptyloxy)benzamido)phenyl)sulfonamido)-ethyl)butan-1-aminium bromide]", "values": [{"measurement": "antimicrobial activity against Gram positive S. aureus relative to otilonium bromide, in words", "setting": "S. aureus", "result": "comparable or better than the activity of otilonium bromide"}, {"measurement": "MIC", "setting": "S. aureus; [5]", "result": "3 to 30", "unit": "µg/mL"}, {"measurement": "MIC", "setting": "S. aureus; [6]", "result": "3 to 30", "unit": "µg/mL"}, {"measurement": "MIC", "setting": "A. baumannii [1]; [7]", "result": "3 to 30", "unit": "µg/mL"}, {"measurement": "MIC", "setting": "A. baumannii [1]; [8]", "result": "3 to 30", "unit": "µg/mL"}, {"measurement": "stability in the presence of enzymes that are found in the gut, compared with otilonium bromide (11), in words", "setting": "A. baumannii [2]; 5% human plasma", "result": "better stability than otilonium bromide"}, {"measurement": "increase in stability", "setting": "A. baumannii [2]; 5% human plasma, vs otilonium bromide (11)", "result": "four- to eight-fold"}, {"measurement": "Δ MIC A. baumannii + human plasma", "setting": "A. baumannii [2]", "result": 2, "unit": "X"}, {"measurement": "% hemolysis at 16 μg/ml", "setting": "human red blood cell", "result": 3, "unit": "%"}, {"measurement": "% hemolysis at 32 μg/ml", "setting": "human red blood cell", "result": 14, "unit": "%"}, {"measurement": "hemolysis as compared to otilonium bromide (11), in words", "setting": "human red blood cell", "result": "reduced hemolysis as compared to otilonium bromide"}, {"measurement": "reduction in hemolysis as compared to otilonium bromide (11)", "setting": "human red blood cell", "result": 85, "unit": "%"}, {"measurement": "viability and colonization of ETEC in intestines", "setting": "[3]", "result": "significantly decreased viablity and colonization"}, {"measurement": "viability and colonization of VRE in intestines", "setting": "[4]", "result": "significantly decreased viablity and colonization"}]}]}
